Measured values published in patent US9259022B2, “Sweetener” (Tate & Lyle Ingredients Americas LLC, priority 2013, dated 2016).

assay: Round table sweetness evaluation by test panelists (sucrose equivalent value, SEV); assay type: in vivo; settings: equal sweet 10 SEV concentrations in neutral pH water, room temperature; references 4%-14% sucrose
Experimental: Round table evaluations were performed with test panelists. Equal sweet 10 SEV concentrations in neutral pH water were made for allulose, AceK and fructose, as well as a composition comprising allulose, AceK and fructose. The components of the test compositions are described in the below tables. The mixed compositions were calculated using the Beidler mixture equation for the sweeteners. The Beidler mixture equation for sweeteners is as follows: […]
The concentration of each component in the mixture in ppm is divided by SEV (c/R) and is plotted against concentration, c. The slope of the linear regression is […]. The y-intercept of the linear regression multiplied by Rmax is the half-maximal sweetness concentration, 1/K. Rmax and 1/K are the two parameters used in the Beidler equation
The equal-molar mixture was tested against reference samples for the panelists to determine SEV values. […] The test samples were served in 2 ounce soufflé cups (approximately 60 ml) coded with 3-digit codes at room temperature. A two minute wait period between samples was enforced. Water and unsalted crackers was available for the panelists to clear their palates before and during testing. EyeQuestion, software distributed by Logic8 BV of Elst, The Netherlands, was used for ballot development and recording of results. Results were collected in EyeQuestion for calculating approximate SEV level of each test sample.
The test products analyzed in this experiment are described below in Table 1.

Question: Which “Mean sucrose equivalent value (SEV), Mean 1” value (“Mean sucrose equivalent value” below) does the source give for `O=C(CO)[C@@H](O)[C@H](O)[C@H](O)CO` [Fructose, fructose] here?
Answer: 10.14

Question: And the “Median sucrose equivalent value (SEV), Median 1” value (“Median sucrose equivalent value” for short)?
Answer: 10

Question: Which “Mean sucrose equivalent value” value does the source give for `CC1=CC(=O)[N-]S(=O)(=O)O1.[K+]` [AceK, potassium salt of 6-methyl-1,2,3-oxathiazine-4(3H)-one 2,2-dioxide] here?
Answer: 9.286

Question: What about the “Median sucrose equivalent value” value of the same molecule?
Answer: 8

Question: For `O=C(CO)C(O)C(O)C(O)CO` (stereo not drawn) [Allulose, allulose], which “Mean sucrose equivalent value” value is on record?
Answer: 10.14

Question: What about the “Median sucrose equivalent value” value of the same molecule?
Answer: 10
